# Experimental data: PubChem BioAssay AID2060623 (Molecular Pharmacology Branch, DTP, NCI, 2025)
# Several values for one entry are separate records, joined by “and”; a condition that tells them apart may be missing. Equal values may be shown once.
# Test system: 227483-062-R1-J1-PDC complex spheroids with HUVEC/MSC, viability
# Assay: Anticancer human tumor 227483-062-R1-J1-PDC patient-derived pancreatic carcinoma cell line growth inhibition [CLK]
# Details: for viability, T/C: stronger effect = lower value
# In short: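 Multi-cell-type spheroids combined patient-derived tumor cells with HUVEC endothelial cells and human mesenchymal stem cells. Paired agents were dosed in half-log steps down from about clinical Cmax, or from 10 microM where Cmax was unknown.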
# [1] = curve of first compound, second compound 0.0316 µM
# [2] = curve of first compound, second compound 0.1 µM
# [3] = curve of first compound, second compound 0.316 µM
# [4] = curve of first compound, second compound 1 µM
# [5] = curve of first compound, second compound 3.16 µM
# [6] = curve of first compound, second compound 10 µM
# [7] = second compound 0.0316 µM, first compound 0.0316 µM
# [8] = second compound 0.0316 µM, first compound 0.1 µM
# [9] = second compound 0.0316 µM, first compound 0.316 µM
# [10] = second compound 0.0316 µM, first compound 1 µM
# [11] = second compound 0.0316 µM, first compound 3.16 µM
# [12] = second compound 0.0316 µM, first compound 10 µM
# [13] = second compound 0.1 µM, first compound 0.0316 µM
# [14] = second compound 0.1 µM, first compound 0.1 µM
# [15] = second compound 0.1 µM, first compound 0.316 µM
# [16] = second compound 0.1 µM, first compound 1 µM
# [17] = second compound 0.1 µM, first compound 3.16 µM
# [18] = second compound 0.1 µM, first compound 10 µM
# [19] = second compound 0.316 µM, first compound 0.0316 µM
# [20] = second compound 0.316 µM, first compound 0.1 µM
# [21] = second compound 0.316 µM, first compound 0.316 µM
# [22] = second compound 0.316 µM, first compound 1 µM
# [23] = second compound 0.316 µM, first compound 3.16 µM
# [24] = second compound 0.316 µM, first compound 10 µM
# [25] = second compound 1 µM, first compound 0.0316 µM
# [26] = second compound 1 µM, first compound 0.1 µM
# [27] = second compound 1 µM, first compound 0.316 µM
# [28] = second compound 1 µM, first compound 1 µM
# [29] = second compound 1 µM, first compound 3.16 µM
# [30] = second compound 1 µM, first compound 10 µM
# [31] = second compound 3.16 µM, first compound 0.0316 µM
# [32] = second compound 3.16 µM, first compound 0.1 µM
# [33] = second compound 3.16 µM, first compound 0.316 µM
# [34] = second compound 3.16 µM, first compound 1 µM
# [35] = second compound 3.16 µM, first compound 3.16 µM
# [36] = second compound 3.16 µM, first compound 10 µM
# [37] = second compound 10 µM, first compound 0.0316 µM
# [38] = second compound 10 µM, first compound 0.1 µM
# [39] = second compound 10 µM, first compound 0.316 µM
# [40] = second compound 10 µM, first compound 1 µM
# [41] = second compound 10 µM, first compound 3.16 µM
# [42] = second compound 10 µM, first compound 10 µM
# 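Further: spheroids exposed to compounds for seven days before readout.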
# 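Wherever viability, T/C is given: percent of DMSO vehicle control luminescence as 100% viability.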
compound,measurement,setting,value
C=C(F)C(=O)N1CCN(c2nc(OCC3CCCN3C)nc3c2CCN(c2cccc4cccc(Cl)c24)C3)CC1CC#N (configuration not stated) + CNC(=O)c1ccc(Nc2nc(OC3CCCC3)c3c(-c4ccc5nc(C)oc5c4)c[nH]c3n2)c(OC)c1,IC50,[1],5410 nM
same,IC50,[2],5790 nM
same,IC50,[3],5820 nM
same,IC50,[4],3780 nM
same,IC50,[5],169 nM
same,IC50,[6],< 31.6 nM
same,"viability, T/C",[7],116%
same,"viability, T/C",[8],98%
same,"viability, T/C",[9],117%
same,"viability, T/C",[10],121%
same,"viability, T/C",[11],83.9%
same,"viability, T/C",[12],11.4%
same,"viability, T/C",[13],113%
same,"viability, T/C",[14],118%
same,"viability, T/C",[15],93.7%
same,"viability, T/C",[16],103%
same,"viability, T/C",[17],96.5%
same,"viability, T/C",[18],8.35%
same,"viability, T/C",[19],95.9%
same,"viability, T/C",[20],84.2%
same,"viability, T/C",[21],101%
same,"viability, T/C",[22],102%
same,"viability, T/C",[23],130%
same,"viability, T/C",[24],3.32%
same,"viability, T/C",[25],79.6%
same,"viability, T/C",[26],57.4%
same,"viability, T/C",[27],67.7%
same,"viability, T/C",[28],69%
same,"viability, T/C",[29],58.8%
same,"viability, T/C",[30],0.65%
same,"viability, T/C",[31],52.3%
same,"viability, T/C",[32],47.2%
same,"viability, T/C",[33],51.9%
same,"viability, T/C",[34],41.6%
same,"viability, T/C",[35],22%
same,"viability, T/C",[36],0.26%
same,"viability, T/C",[37],42.4%
same,"viability, T/C",[38],43.3%
same,"viability, T/C",[39],40.3%
same,"viability, T/C",[40],29%
same,"viability, T/C",[41],16.1%
same,"viability, T/C",[42],0.39%
CC(C)CC(NC(=O)C(Cc1ccccc1)NC(=O)c1cnccn1)B(O)O (configuration not stated),"viability, T/C",compound 0.000949 µM,86.6% and 81.9%
same,"viability, T/C",compound 0.003 µM,2.59% and 1.33%
same,"viability, T/C",compound 0.00949 µM,0.56% and 0.57%
same,"viability, T/C",compound 0.03 µM,2.03% and 0.48%
same,"viability, T/C",compound 0.0949 µM,0.64% and 0.38%
same,"viability, T/C",compound 0.3 µM,0.96% and 0.35%
same,IC50,curve of compound,1.57 nM and 1.5 nM
CCCS(=O)(=O)Nc1ccc(F)c(C(=O)c2c[nH]c3ncc(-c4ccc(Cl)cc4)cc23)c1F,"viability, T/C",compound 0.0316 µM,101% and 92.4%
same,"viability, T/C",compound 0.1 µM,128% and 96.7%
same,"viability, T/C",compound 0.316 µM,106% and 92.3%
same,"viability, T/C",compound 1 µM,125% and 99%
same,"viability, T/C",compound 3.16 µM,129% and 98.8%
same,"viability, T/C",compound 10 µM,107% and 80.7%
same,IC50,curve of compound,> 10000 nM
NC(=O)C(=Cn1cnc(-c2cc(C(F)(F)F)cc(C(F)(F)F)c2)n1)c1cncnc1 + CNC(=O)c1ccc(Nc2nc(OC3CCCC3)c3c(-c4ccc5nc(C)oc5c4)c[nH]c3n2)c(OC)c1,IC50,[1],379 nM
same,IC50,[2],332 nM
same,IC50,[3],192 nM
same,IC50,[4],31.8 nM
same,IC50,[5],< 9.49 nM
same,IC50,[6],< 9.49 nM
same,"viability, T/C","second compound 0.0316 µM, first compound 0.00949 µM",73.6%
same,"viability, T/C","second compound 0.0316 µM, first compound 0.03 µM",81.8%
same,"viability, T/C","second compound 0.0316 µM, first compound 0.0949 µM",73.2%
same,"viability, T/C","second compound 0.0316 µM, first compound 0.3 µM",53.4%
same,"viability, T/C","second compound 0.0316 µM, first compound 0.949 µM",29.8%
same,"viability, T/C","second compound 0.0316 µM, first compound 3 µM",9.82%
same,"viability, T/C","second compound 0.1 µM, first compound 0.00949 µM",86.3%
same,"viability, T/C","second compound 0.1 µM, first compound 0.03 µM",77.2%
same,"viability, T/C","second compound 0.1 µM, first compound 0.0949 µM",62.4%
same,"viability, T/C","second compound 0.1 µM, first compound 0.3 µM",60.7%
same,"viability, T/C","second compound 0.1 µM, first compound 0.949 µM",24.6%
same,"viability, T/C","second compound 0.1 µM, first compound 3 µM",5.03%
same,"viability, T/C","second compound 0.316 µM, first compound 0.00949 µM",61.4%
same,"viability, T/C","second compound 0.316 µM, first compound 0.03 µM",80.7%
same,"viability, T/C","second compound 0.316 µM, first compound 0.0949 µM",61.2%
same,"viability, T/C","second compound 0.316 µM, first compound 0.3 µM",41%
same,"viability, T/C","second compound 0.316 µM, first compound 0.949 µM",14.7%
same,"viability, T/C","second compound 0.316 µM, first compound 3 µM",2.56%
same,"viability, T/C","second compound 1 µM, first compound 0.00949 µM",46.4%
same,"viability, T/C","second compound 1 µM, first compound 0.03 µM",56.3%
same,"viability, T/C","second compound 1 µM, first compound 0.0949 µM",43.4%
same,"viability, T/C","second compound 1 µM, first compound 0.3 µM",25.6%
same,"viability, T/C","second compound 1 µM, first compound 0.949 µM",6.77%
same,"viability, T/C","second compound 1 µM, first compound 3 µM",2%
same,"viability, T/C","second compound 3.16 µM, first compound 0.00949 µM",43%
same,"viability, T/C","second compound 3.16 µM, first compound 0.03 µM",35.8%
same,"viability, T/C","second compound 3.16 µM, first compound 0.0949 µM",26.9%
same,"viability, T/C","second compound 3.16 µM, first compound 0.3 µM",11.7%
same,"viability, T/C","second compound 3.16 µM, first compound 0.949 µM",2.83%
same,"viability, T/C","second compound 3.16 µM, first compound 3 µM",2.08%
same,"viability, T/C","second compound 10 µM, first compound 0.00949 µM",40.6%
same,"viability, T/C","second compound 10 µM, first compound 0.03 µM",37.3%
same,"viability, T/C","second compound 10 µM, first compound 0.0949 µM",22%
same,"viability, T/C","second compound 10 µM, first compound 0.3 µM",7.23%
same,"viability, T/C","second compound 10 µM, first compound 0.949 µM",2.36%
same,"viability, T/C","second compound 10 µM, first compound 3 µM",1.41%
CC(=O)O[C@H]1C(=O)[C@@]2(C)[C@H]([C@H](OC(=O)c3ccccc3)[C@]3(O)C[C@H](OC(=O)[C@H](O)[C@@H](NC(=O)c4ccccc4)c4ccccc4)C(C)=C1C3(C)C)[C@]1(OC(C)=O)CO[C@@H]1C[C@@H]2O + CN1CCN(c2cc(C(=O)Nc3cc4cc(-c5cnn(C)c5)ccc4cn3)ccn2)CC1,IC50,[1],< 31.6 nM
same,IC50,[2],< 31.6 nM
same,IC50,[3],< 31.6 nM
same,IC50,[4],< 31.6 nM
same,IC50,[5],< 31.6 nM
same,IC50,[6],< 31.6 nM
same,"viability, T/C",[7],27.4%
same,"viability, T/C",[8],22.2%
same,"viability, T/C",[9],31.2%
same,"viability, T/C",[10],31.4%
same,"viability, T/C",[11],36.9%
same,"viability, T/C",[12],43.8%
same,"viability, T/C",[13],28.6%
same,"viability, T/C",[14],32.8%
same,"viability, T/C",[15],35%
same,"viability, T/C",[16],38%
same,"viability, T/C",[17],40.7%
same,"viability, T/C",[18],40.6%
same,"viability, T/C",[19],2.61%
same,"viability, T/C",[20],6.66%
same,"viability, T/C",[21],2.59%
same,"viability, T/C",[22],4.5%
same,"viability, T/C",[23],5.51%
same,"viability, T/C",[24],6.7%
same,"viability, T/C",[25],1.8%
same,"viability, T/C",[26],2.26%
same,"viability, T/C",[27],3.26%
same,"viability, T/C",[28],4%
same,"viability, T/C",[29],1.87%
same,"viability, T/C",[30],2.01%
same,"viability, T/C",[31],7.44%
same,"viability, T/C",[32],3.02%
same,"viability, T/C",[33],3.51%
same,"viability, T/C",[34],2.58%
same,"viability, T/C",[35],5.48%
same,"viability, T/C",[36],4.46%
same,"viability, T/C",[37],1.55%
same,"viability, T/C",[38],1.61%
same,"viability, T/C",[39],1.94%
same,"viability, T/C",[40],1.68%
same,"viability, T/C",[41],1.56%
same,"viability, T/C",[42],1.39%
Nc1ccccc1NC(=O)c1ccc(CNC(=O)OCc2cccnc2)cc1 + CNC(=O)c1ccc(Nc2nc(OC3CCCC3)c3c(-c4ccc5nc(C)oc5c4)c[nH]c3n2)c(OC)c1,IC50,[1],> 10000 nM
same,IC50,[2],8510 nM
same,IC50,[3],5130 nM
same,IC50,[4],531 nM
same,IC50,[5],< 31.6 nM
same,IC50,[6],< 31.6 nM
same,"viability, T/C",[7],90.9%
same,"viability, T/C",[8],88.5%
same,"viability, T/C",[9],109%
same,"viability, T/C",[10],111%
same,"viability, T/C",[11],118%
same,"viability, T/C",[12],75.8%
same,"viability, T/C",[13],73.3%
same,"viability, T/C",[14],88.6%
same,"viability, T/C",[15],94.6%
same,"viability, T/C",[16],107%
same,"viability, T/C",[17],96.5%
same,"viability, T/C",[18],43%
same,"viability, T/C",[19],82.1%
same,"viability, T/C",[20],72.9%
same,"viability, T/C",[21],78.7%
same,"viability, T/C",[22],78.3%
same,"viability, T/C",[23],65.8%
same,"viability, T/C",[24],28%
same,"viability, T/C",[25],53.6%
same,"viability, T/C",[26],45.7%
same,"viability, T/C",[27],53.4%
same,"viability, T/C",[28],50.1%
same,"viability, T/C",[29],40.6%
same,"viability, T/C",[30],14.5%
same,"viability, T/C",[31],37.4%
same,"viability, T/C",[32],44.2%
same,"viability, T/C",[33],39.7%
same,"viability, T/C",[34],30.1%
same,"viability, T/C",[35],17.3%
same,"viability, T/C",[36],7.51%
same,"viability, T/C",[37],33%
same,"viability, T/C",[38],30.8%
same,"viability, T/C",[39],32.2%
same,"viability, T/C",[40],19.4%
same,"viability, T/C",[41],16.6%
same,"viability, T/C",[42],5.89%
